Test results published in publication PMC3238500 (Archives of biochemistry and biophysics, 2011).

Target: pyruvate carboxylase R472S mutant (RePC) (Rhizobium etli, UniProt Q2K340, R472S)
Assay type: biochemical

## CC(=O)SCCNC(=O)CCNC(=O)[C@H](O)C(C)(C)COP(=O)(O)OP(=O)(O)OC[C@H]1O[C@@H](n2cnc3c(N)ncnc32)[C@H](O)[C@@H]1OP(=O)(O)O [acetyl CoA]
  Ka (activation constant): 1.65 ± 0.05 mM
